Source: patent US6963012B2, “Diaryl ether derivative, addition salt thereof, and immunosuppressant” (Kyorin Pharmaceutical Co., Ltd., priority 2001, dated 2005)
Where a name gives a salt, the structure may show the parent alone.

Assays:
[1] = system: Host vs Graft Rejection in Mice; experiment: Ability of test compounds to suppress host vs graft rejection in mice (popliteal lymph node weight); format: in vivo, mice (C3H/HeN, BALB/c stimulation cells); settings: Mus musculus
Experimental: Ability of Test Compounds to Suppress Host vs Graft Rejection in Mice
This experiment was performed according to the method described in Transplantation, 55, No.3 (1993): 578-591. Spleens were collected from 9 to 11 week old male BALB/c mice (CLEA JAPAN Inc., CHARLES RIVER JAPAN Inc., or JAPAN SLC Inc.). The spleens were placed in a phosphate-buffered saline (PBS(−), NISSUI PHARMACEUTICAL Co., Ltd.) or in an RPMI-1640 medium (GIBCO […] Inc., or IWAKI GLASS Co., Ltd.) and were either passed through a stainless steel mesh, or gently pressed between two slide glasses and then passed through a cell strainer (70 μm, Falcon), to form a cell suspension. The suspension was then centrifuged and the supernatant was discarded. An ammonium chloride-Tris isotonic buffer was added to the suspension to lyse erythrocytes. The cells were then centrifuged and washed three times in PBS (−) or RPMI-1640 medium and were resuspended in an RPMI-1640 medium. To this suspension, mitomycin C (KYOWA HAKKO KOGYO Co., Ltd.) was added to a final concentration of 25 μg/mL and the suspension was incubated for 30 minutes at 37° C. in a 5% CO2 atmosphere. The cells were again centrifuged and washed in PBS (−) or RPMI-1640 medium and were resuspended in an RPMI-1640 medium so that the medium would contain 2.5×10^8 cells/mL. This suspension served as a “stimulation cell suspension.” Using a 27G needle along with a microsyringe (Hamilton), 20 μL (5×10^6 cells/mouse) of the stimulation cell suspension was subcutaneously injected into the right hind footpad of 7 to 9 week old male C3H/HeN mice (CLEA JAPAN Inc., CHARLES RIVER JAPAN Inc., or JAPAN SLC Inc.). A group of mice was injected with RPMI-1640 medium alone to serve as normal control. 4 days after the injection, right popliteal lymph nodes were collected and were weighed on a Mettler AT201 electronic scale (METTLER TOLEDO Co., Ltd.). Each animal was intraperitoneally administered a test compound once a day for four consecutive days starting on the day of the injection of the stimulation cells (i.e., total of 4 times). Controls were administered a vehicle that has the same composition as that used in the preparation of the test compounds.

[2] = system: Delayed-type Hypersensitivity in Mice; experiment: Ability of test compounds to suppress delayed-type hypersensitivity in mice (DNFB, ear thickness); format: in vivo, mice (BALB/c); settings: dose 3 mg/kg, orally, 30 minutes before DNFB challenge; increase in ear thickness 24 hours after the challenge
Experimental: <Experiment 2> Ability of Test Compounds to Suppress Delayed-type Hypersensitivity in Mice. […] The sensitization was done for 2 consecutive days (day 0 and day 1). On day 5, the ears of the mice were challenged with the antigen to induce delayed-type hypersensitive responses: First, the thickness of each ear was measured by the dial thickness gauge G (0.01-10 mm, OZAKI MFG Co., Ltd.). Next, a test compound was administered. 30 minutes after the administration, 10 μL of a 0.2% (v/v) DNFB solution was applied to the inner and outer surfaces of the right ear of each animal for antigen challenge. The left ear of each animal was challenged with the solvent alone. 24 hours after the challenge, the increase in the ear thickness was measured for each ear and the difference between the right and the left ears was determined for each individual. The test compound was dissolved, or suspended, in an ultra pure water and was orally administered at a dose of 0.1 mL/10 g of body weight. A control group was administered ultra pure water alone.

| SMILES | melting point [°C] | inhibition at 10 mg/kg [1] [%] | inhibition at 3 mg/kg [1] [%] | Inhibition [2] [%] |
| --- | --- | --- | --- | --- |
| Cl.NC(CO)(CO)C/C=C/c1ccc(Oc2cc(C(F)(F)F)cc(C(F)(F)F)c2)cc1 | 203 to 206 | – | – | – |
| Cl.NC(CO)(CO)CCOc1ccc(Oc2cc(C(F)(F)F)cc(C(F)(F)F)c2)cc1 | 151 to 155 | – | – | – |
| Cl.NC(CO)(CO)CCc1ccc(Oc2cccc(OCc3ccccc3)c2)cc1Cl | 150 to 152 | – | – | – |
| Cl.NC(CO)(CO)CCCCc1ccc(Oc2cccc(OCc3ccccc3)c2)cc1Cl | 95 to 97 | – | – | – |
| Cl.NC(CO)(CO)CCCc1ccc(Oc2cc(C(F)(F)F)cc(C(F)(F)F)c2)cc1 [Example 147, 2-amino-2-[4-(3,5-bistrifluoromethylphenoxy)phenyl]propyl-1,3-propanediol hydrochloride] | 194 to 196 | 82 | – | – |
| Cl.NC(CO)(CO)CCCc1ccc(Oc2cccc(OCCCc3ccccc3)c2)cc1 [Example 148, 2-amino-2-[4-(3-phenylpropyloxyphenoxy)phenyl]propyl-1,3-propanediol hydrochloride] | 95 to 98 | – | 78 | – |
| CC(C)c1cccc(Oc2ccc(CCCC(N)(CO)CO)cc2)c1 [Example 150, 2-amino-2-[4-(3-isopropylphenoxy)phenyl]propyl-1,3-propanediol hydrochloride] | – | 78 | – | – |
| Cl.NC(CO)(CO)CCCc1ccc(Oc2cccc(OCc3ccccc3)c2)cc1Cl [Example 173, 2-amino-2-[4-(3-benzyloxyphenoxy)-2-chlorophenyl]propyl-1,3-propanediol hydrochloride] | 105 to 106 | – | 100 | 64 |
